Experimental data: ChEMBL document CHEMBL3351580, “Pyrano-isochromanones as IL-6 inhibitors: synthesis, in vitro and in vivo antiarthritic activity” (J Med Chem, 2014)
Calls of active or inactive are those of the source. No cut-off for these calls is given here.

Assays:
THP-1 [1] = test: Inhibition of NFkappaB expression in human THP1 cells up to 100 uM by Western blotting method; type: functional, cell-based
THP-1 [2] = test: Inhibition of LPS-induced IL6 production in human THP1 cells after 24 hrs; type: functional, cell-based; details: THP-1, 24 h
Mus musculus [3] = test: Antiarthritic activity in BALB/c mouse assessed as reduction in SRBC-induced blood IFNgamma level administered orally once daily for 14 days measured 4 hrs post last dose by ELISA method; type: functional, organism-based
Mus musculus [4] = test: Antiinflammatory activity in BALB/c mouse assessed as serum TNFalpha level at 10 mg/kg, po qd for 5 days followed by LPS challenge 1 hr after last compound dose on fifth day and measured 4 hrs post LPS challenge by ELISA method (reference value: 717 +/- 218 pg/mL); type: functional
THP-1 [5] = test: Cytotoxicity against human THP1 cells after 24 hrs by MTT assay; type: cell-based; details: THP-1, 24 h
Mus musculus [6] = test: Antiarthritic activity in DBA/1J mouse collagen-induced arthritis model assessed as reduction in TNFalpha level at 3 to 30 mg/kg, po administered once daily for 49 days starting from onset of disease and measured after 3 to 49 days of disease onset by ELISA method; type: functional, organism-based
Mus musculus [7] = test: Antiarthritic activity in DBA/1J mouse collagen-induced arthritis model assessed as reduction in anticollagen antibody IgG1 level at 3 to 30 mg/kg, po administered once daily for 49 days starting from onset of disease and measured after 49 days of disease onset by ELISA method; type: functional, organism-based
Mus musculus [8] = test: Antiarthritic activity in BALB/c mouse assessed as reduction in SRBC-induced blood IL2 level administered orally once daily for 14 days measured 4 hrs post last dose by ELISA method; type: functional, organism-based
Mus musculus [9] = test: Antiinflammatory activity in BALB/c mouse assessed as serum nitric oxide level at 100 mg/kg, po qd for 5 days followed by LPS challenge 1 hr after last compound dose on fifth day and measured 4 hrs post LPS challenge by Griess assay (reference value: 6.95 +/- 1.81 uM); type: functional
Mus musculus [10] = test: Antiarthritic activity in DBA/1J mouse collagen-induced arthritis model assessed as reduction in paw swelling at 30 mg/kg, po administered once daily for 49 days starting from onset of disease; type: functional; details: 1176 h
Mus musculus [11] = test: Antiinflammatory activity in BALB/c mouse assessed as serum TNFalpha level at 100 mg/kg, po qd for 5 days followed by LPS challenge 1 hr after last compound dose on fifth day and measured 4 hrs post LPS challenge by ELISA method (reference value: 717 +/- 218 pg/mL); type: functional
THP-1 [12] = test: Cytotoxicity against human THP1 cells after 48 hrs by MTT assay; type: cell-based; details: THP-1, 48 h
[13] = Solubility in water; type: physicochemical
THP-1 [14] = test: Inhibition of NFkappaB p65/rel expression in human THP1 cells at 20 to 100 uM by Western blotting method; type: functional, cell-based
Mus musculus [15] = test: Antiarthritic activity in DBA/1J mouse collagen-induced arthritis model assessed as reduction in anticollagen antibody IgG2a level at 3 to 30 mg/kg, po administered once daily for 49 days starting from onset of disease and measured after 49 days of disease onset by ELISA method; type: functional, organism-based
Mus musculus [16] = test: Antiarthritic activity in DBA/1J mouse collagen-induced arthritis model assessed as reduction in IL-1beta level at 3 to 30 mg/kg, po administered once daily for 49 days starting from onset of disease and measured after 3 to 49 days of disease onset by ELISA method; type: functional, organism-based
Mus musculus [17] = test: Antiarthritic activity in DBA/1J mouse collagen-induced arthritis model assessed as reduction in anticollagen antibody IgG2a level at 3 to 30 mg/kg, po administered once daily for 49 days starting from onset of disease and measured after 14 days of disease onset by ELISA method; type: functional, organism-based
Mus musculus [18] = test: Antiinflammatory activity in BALB/c mouse assessed as serum IL6 level at 10 mg/kg, po qd for 5 days followed by LPS challenge 1 hr after last compound dose on fifth day and measured 4 hrs post LPS challenge by ELISA method (reference value: 410 +/- 95 pg/mL); type: functional
THP-1 [19] = test: Inhibition of LPS-induced nitric oxide production in human THP1 cells at 10 uM after 24 hrs by Griess assay; type: functional; details: THP-1, 24 h
B-cell = test: Inhibition of LPS-induced cell proliferation of B cells (unknown origin) at 10 uM after 72 hrs by MTT assay; type: functional
[20] = Inhibition of concanavalin A-induced cell proliferation of T cells (unknown origin) at 10 uM after 72 hrs by MTT assay; type: functional
Mus musculus [21] = test: Antiarthritic activity in DBA/1J mouse collagen-induced arthritis model assessed as reduction in anticollagen antibody IgG1 level at 3 to 30 mg/kg, po administered once daily for 49 days starting from onset of disease and measured after 14 days of disease onset by ELISA method; type: functional, organism-based
Mus musculus [22] = test: Immunosuppressive activity in BALB/c mouse assessed as reduction in SRBC-induced humoral immunity by measuring IgM level at 3 to 30 mg/kg, po administered once daily for 14 days measured 4 hrs post last dose; type: functional, organism-based
[23] = target: Inhibitor of NF-kappa-B kinase (IKK) (Homo sapiens) (UniProt O14920+O15111+Q9Y6K9); test: Inhibition of IKKbeta expression in human THP1 cells at 20 to 100 uM by Western blotting method; type: functional, cell-based; details: THP-1
Mus musculus [24] = test: Immunosuppressive activity in BALB/c mouse assessed as reduction in SRBC-induced humoral immunity by measuring IgG level at 3 to 30 mg/kg, po administered once daily for 14 days measured 4 hrs post last dose; type: functional, organism-based
Mus musculus [25] = test: Immunosuppressive activity in BALB/c mouse assessed as reduction in SRBC-induced DTH response at 3 to 30 mg/kg, po administered once daily for 14 days measured 4 hrs post last dose; type: functional, organism-based
Mus musculus [26] = test: Antiinflammatory activity in BALB/c mouse assessed as serum IL6 level at 100 mg/kg, po qd for 5 days followed by LPS challenge 1 hr after last compound dose on fifth day and measured 4 hrs post LPS challenge by ELISA method (reference value: 410 +/- 95 pg/mL); type: functional
THP-1 [27] = test: Inhibition of LPS-induced IL-1beta production in human THP1 cells at 10 uM after 24 hrs; type: functional; details: THP-1, 24 h
[28] = Therapeutic index, ratio of cytotoxic IC50 for human THP1 cells by MTT assay to IC50 for inhibition of LPS-induced IL6 production in human THP1 cells; type: cell-based, THP-1; details: read-out: Ratio IC50
Mus musculus [29] = test: Antiarthritic activity in BALB/c mouse assessed as reduction in SRBC-induced blood IL4 level administered orally once daily for 14 days measured 4 hrs post last dose by ELISA method; type: functional, organism-based
THP-1 [30] = test: Inhibition of LPS-induced TNFalpha production in human THP1 cells after 24 hrs; type: functional, cell-based; details: THP-1, 24 h
Mus musculus [31] = test: Antiinflammatory activity in BALB/c mouse assessed as serum nitric oxide level at 10 mg/kg, po qd for 5 days followed by LPS challenge 1 hr after last compound dose on fifth day and measured 4 hrs post LPS challenge by Griess assay (reference value: 6.95 +/- 1.81 uM); type: functional
Mus musculus [32] = test: Antiarthritic activity in DBA/1J mouse collagen-induced arthritis model assessed as reduction in IL6 level at 3 to 30 mg/kg, po administered once daily for 49 days starting from onset of disease and measured after 3 to 49 days of disease onset by ELISA method; type: functional, organism-based
[33] = Solubility in PBS buffer; type: physicochemical
[34] = Solubility in SIF solution; type: physicochemical
[35] = Solubility in SGF solution; type: physicochemical

COc1c(O)cc2c(c1O)[C@@H]1O[C@H](CO)[C@@H](O)[C@H](O)[C@H]1OC2=O [BERGENIN]
inhibition (THP-1 [1]): inactive
IC50 (THP-1 [2]): 0.208 µM
inhibition (Mus musculus [3]): Dose-dependent effect
Activity (Mus musculus [4]): 667 pg/mL
IC50 (THP-1 [5]): 130 µM
inhibition (Mus musculus [6]): Active
inhibition (Mus musculus [7]): Active
inhibition (Mus musculus [8]): Dose-dependent effect
Activity (Mus musculus [9]): 3.29 µM
inhibition in vivo at 30 mg/kg (Mus musculus [10]): 32%
Activity (Mus musculus [11]): 509 pg/mL
IC50 (THP-1 [12]): 84 µM
solubility [13]: > 1500 µg/mL
inhibition (THP-1 [14]): Active
inhibition (Mus musculus [15]): Active
inhibition (Mus musculus [16]): Active
inhibition (Mus musculus [17]): Active
Activity (Mus musculus [18]): 282 pg/mL
inhibition at 10 µM (THP-1 [19]): 39%
inhibition at 10 µM (B-cell): 51.2%
inhibition at 10 µM [20]: 54.8%
inhibition (Mus musculus [21]): Active
inhibition (Mus musculus [22]): Active
inhibition [23]: Active
inhibition (Mus musculus [24]): Active
inhibition (Mus musculus [25]): Active
Activity (Mus musculus [26]): 55 pg/mL
inhibition at 10 µM (THP-1 [27]): 24%
selectivity ratio [28]: > 400
inhibition (Mus musculus [29]): Dose-dependent effect
IC50 (THP-1 [30]): 12.5 µM
Activity (Mus musculus [31]): 2.62 µM
inhibition (Mus musculus [32]): Active

COc1c(O)c(CN2CCC(Cc3ccccc3)CC2)c2c(c1O)[C@@H]1O[C@H](CO)[C@@H](O)[C@H](O)[C@H]1OC2=O
IC50 (THP-1 [2]): 0.371 µM
solubility [13]: > 1500 µg/mL
inhibition at 10 µM (B-cell): 18.2%
inhibition at 10 µM [20]: 16%
IC50 (THP-1 [30]): > 30 µM

CCOC(=O)N1CCN(Cc2c(O)c(OC)c(O)c3c2C(=O)O[C@@H]2[C@@H](O)[C@H](O)[C@@H](CO)O[C@@H]32)CC1
IC50 (THP-1 [2]): 0.177 µM
solubility [13]: > 1500 µg/mL
inhibition at 10 µM (B-cell): 9%
inhibition at 10 µM [20]: 27%
IC50 (THP-1 [30]): > 30 µM

CCN1CCN(Cc2c(O)c(OC)c(O)c3c2C(=O)O[C@@H]2[C@@H](O)[C@H](O)[C@@H](CO)O[C@@H]32)CC1
IC50 (THP-1 [2]): 0.195 µM
solubility [13]: > 1500 µg/mL
inhibition at 10 µM (B-cell): 44.2%
inhibition at 10 µM [20]: 34.2%
IC50 (THP-1 [30]): > 30 µM

COc1c(O)c(CN2CCN(C)CC2)c2c(c1O)[C@@H]1O[C@H](CO)[C@@H](O)[C@H](O)[C@H]1OC2=O
IC50 (THP-1 [2]): 0.141 µM
inhibition (Mus musculus [3]): Dose-dependent effect
Activity (Mus musculus [4]): 672 pg/mL
IC50 (THP-1 [5]): 107 µM
inhibition (Mus musculus [6]): Active
inhibition (Mus musculus [7]): Active
inhibition (Mus musculus [8]): Dose-dependent effect
Activity (Mus musculus [9]): 1.24 µM
inhibition in vivo at 30 mg/kg (Mus musculus [10]): 28%
Activity (Mus musculus [11]): 398 pg/mL
IC50 (THP-1 [12]): 68 µM
solubility [13]: > 1500 µg/mL
inhibition (Mus musculus [15]): Active
inhibition (Mus musculus [16]): Active
inhibition (Mus musculus [17]): Active
solubility [33]: > 1500 µg/mL
Activity (Mus musculus [18]): 282 pg/mL
inhibition at 10 µM (THP-1 [19]): 41%
inhibition at 10 µM (B-cell): 49%
inhibition at 10 µM [20]: 36.9%
inhibition (Mus musculus [21]): Active
inhibition (Mus musculus [22]): Active
inhibition [23]: Active
inhibition (Mus musculus [24]): Active
inhibition (Mus musculus [25]): Active
Activity (Mus musculus [26]): 58 pg/mL
inhibition at 10 µM (THP-1 [27]): 41%
selectivity ratio [28]: > 400
inhibition (Mus musculus [29]): Dose-dependent effect
solubility [34]: > 1500 µg/mL
IC50 (THP-1 [30]): > 30 µM
solubility [35]: > 1500 µg/mL
Activity (Mus musculus [31]): 2.87 µM
inhibition (Mus musculus [32]): Active

CCCN(CCC)Cc1c(O)c(OC)c(O)c2c1C(=O)O[C@@H]1[C@@H](O)[C@H](O)[C@@H](CO)O[C@@H]21
IC50 (THP-1 [2]): 0.361 µM
solubility [13]: > 1500 µg/mL
inhibition at 10 µM (B-cell): 2.8%
inhibition at 10 µM [20]: 10.3%
IC50 (THP-1 [30]): > 30 µM

COc1c(O)c(CN2CCCCC2)c2c(c1O)[C@@H]1O[C@H](CO)[C@@H](O)[C@H](O)[C@H]1OC2=O
IC50 (THP-1 [2]): 0.317 µM
solubility [13]: > 1500 µg/mL
inhibition at 10 µM (B-cell): 34.8%
inhibition at 10 µM [20]: 13%
IC50 (THP-1 [30]): > 30 µM

COc1c(O)c(CN2CCCC2)c2c(c1O)[C@@H]1O[C@H](CO)[C@@H](O)[C@H](O)[C@H]1OC2=O
IC50 (THP-1 [2]): 0.755 µM
solubility [13]: > 1500 µg/mL
inhibition at 10 µM (B-cell): 2.5%
inhibition at 10 µM [20]: 14.8%
IC50 (THP-1 [30]): > 30 µM
